Assay results reported in US11717549B2, “Steviol glycoside solubility enhancers” (CARGILL, INCORPORATED, priority 2017, dated 2023).
Like-named read-outs stand apart in the source and are kept apart here.

Legend:
[1] = Equilibrium solubility: mixed with deionized water at 80° C. for 15 minutes, cooled to room temperature, observed at least four days; type: physicochemical; conditions: after heating to 80° C. for 15 minutes
Description: (§1) The composition can optionally be expressed in terms of the concentration of one or more steviol glycoside(s). […] Clear solutions without precipitates are considered soluble. Unless indicated otherwise herein, the term “solubility” refers to “equilibrium solubility.”

[2] = Instantaneous solubility: vigorously mixed with water at room temperature (25° C.); type: physicochemical; conditions: in water at room temperature, absence of compounds that enhance solubility
Description: as §1

[3] = in beverage formulations; cited from earlier work
[4] = cited from earlier work
[5] = Observation for solubility / precipitation of acid and steviol glycoside samples in water (Example I); conditions: 0.3% steviol glycoside; 5:1 and 2:1 molar ratio of pamoic acid to steviol glycoside; pH not adjusted

For `C=C1C[C@@]23CC[C@H]4[C@@](C)(CCC[C@@]4(C)C(=O)O[C@@H]4O[C@H](CO)[C@@H](O)[C@H](O[C@@H]5O[C@H](CO)[C@@H](O)[C@H](O)[C@H]5O)[C@H]4O[C@@H]4O[C@H](CO)[C@@H](O)[C@H](O)[C@H]4O)[C@@H]2CC[C@]1(O[C@@H]1O[C@H](CO)[C@@H](O)[C@H](O[C@@H]2O[C@H](CO)[C@@H](O)[C@H](O)[C@H]2O)[C@H]1O[C@@H]1O[C@H](CO)[C@@H](O)[C@H](O)[C@H]1O)C3` [Rebaudioside M, rebaudioside M], the equilibrium solubility [1] is given as “about 0.2%”, the instantaneous solubility [2] is given as “about 0.13%” and the “aqueous solubility and dissolution qualities” value [3] is given as “poor aqueous solubility”.

In the case of `Cc1ccc([N+](=O)[O-])c(C(=O)O)c1` [6-nitro-3-methylbenzoic acid], the “solubility (ppm)” value ([4]; temperature 20 ° C.) is given as 4.68E+03 ppm.

In the case of `CC(CCCCCC(=O)O)CC(=O)O` (stereo not drawn) [3-methylnonanedioic acid], the “solubility (ppm)” value ([4]; temperature 25 ° C.) is listed as 5.53E+03 ppm.

In the case of `CC(C)CC=CC(=O)O` [5-methyl-2-hexenoic acid], the “solubility (ppm)” value ([4]; temperature 25 ° C.) is listed as 5.37E+03 ppm.

For `O=C(O)c1cc(Cl)ccc1[N+](=O)[O-]` [5-chloro-2-nitrobenzoic acid], the “solubility (ppm)” value ([4]; temperature 25 ° C.) is listed as 9.58E+03 ppm.

For `CC(C)C=CCCC(=O)O` [6-methyl-4-heptenoic acid], the “solubility (ppm)” value ([4]; temperature 25 ° C.) is listed as 4.64E+03 ppm.

For `Cc1cccc(C(=O)O)c1O` [2-hydroxy-3-methylbenzoic acid], the “solubility (ppm)” value ([4]; temperature 100 ° C.) is listed as 1.15E+04 ppm.

For `CC1=NN(c2ccc([N+](=O)[O-])cc2)C(=O)C1[N+](=O)[O-]` (stereo not drawn) [picrolonic acid], the “solubility (ppm)” value ([4]; temperature 17 ° C.) is listed as 8.92E+03 ppm.

In the case of `CCCC=CCC(=O)O` [3-heptenoic acid], the “solubility (ppm)” value ([4]; temperature 25 ° C.) is listed as 5.37E+03 ppm.

In the case of `CCC=C(C)CCC(=O)O` [4-methyl-4-heptenoic acid], the “solubility (ppm)” value ([4]; temperature 25 ° C.) is listed as 4.64E+03 ppm.

With `C=C1C[C@@]23CC[C@H]4[C@@](C)(CCC[C@@]4(C)C(=O)O[C@@H]4O[C@H](CO)[C@@H](O)[C@H](O)[C@H]4O[C@@H]4O[C@H](CO)[C@@H](O)[C@H](O)[C@H]4O)[C@@H]2CC[C@]1(O[C@@H]1O[C@H](CO)[C@@H](O)[C@H](O[C@@H]2O[C@H](CO)[C@@H](O)[C@H](O)[C@H]2O)[C@H]1O[C@@H]1O[C@H](CO)[C@@H](O)[C@H](O)[C@H]1O)C3` [Rebaudioside D, rebaudioside D] the equilibrium solubility [1] was 0.08% and the instantaneous solubility [2] was “less than 0.08%”.

For `O=C(O)c1cccc(C(=O)O)c1C(=O)O` [1,2,3-benzenetricarboxylic acid], the “solubility (ppm)” value ([4]; temperature 19 ° C.) is given as 2.97E+04 ppm.

In the case of `O=C(O)c1ccnc(C(=O)O)c1C(=O)O` [2,3,4-pyridinetricarboxylic acid], the “solubility (ppm)” value ([4]; temperature 15 ° C.) is listed as 1.19E+04 ppm.

In the case of `CCCCC(C)C(=O)O` (racemic) [2-methylhexanoic acid], the “solubility (ppm)” value ([4]; temperature 25 ° C.) is listed as 6.07E+03 ppm.

For `O=C(O)c1ccc(O)cc1O` [2,4-dihydroxybenzoic acid], the “solubility (ppm)” value ([4]; temperature 25 ° C.) is given as 5.96E+03 ppm.

In the case of `CCCCC(C)(C)C(=O)O` [2,2-dimethylhexanoic acid], the “solubility (ppm)” value ([4]; temperature 25 ° C.) is given as 3.44E+03 ppm.

For `O=C(O)c1cccc(O)c1` [m-hydroxybenzoic acid], the “solubility (ppm)” value ([4]; temperature 20 ° C.) is listed as 8.45E+03 ppm.

In the case of `CCC=CCCC(=O)O` [4-heptenoic acid], the “solubility (ppm)” value ([4]; temperature 25 ° C.) is listed as 5.37E+03 ppm.

In the case of `O=C1c2cccc(S(=O)(=O)O)c2C(=O)c2cccc(S(=O)(=O)O)c21` [1,5-anthraquinone disulfonic acid], the “solubility (ppm)” value ([4]; temperature 18 ° C.) is given as 2.86E+05 ppm.

For `O=C1c2cccc(S(=O)(=O)Nc3ccccc3)c2C(=O)c2c1cccc2S(=O)(=O)Nc1ccccc1` [1,8-anthraquinone disulfonic acid anilide], the “solubility (ppm)” value ([4]; temperature 18 ° C.) is given as 2.27E+04 ppm.

For `Nc1cccc(C(=O)O)c1` [aniline-3-carboxylic acid], the “solubility (ppm)” value ([4]; temperature 14.9 ° C.) is listed as 5.87E+03 ppm.

For `CC(=O)N(CC(C)C(=O)O)c1c(I)cc(I)c(N)c1I` (stereo not drawn) [iocetamic acid], the “solubility (ppm)” value ([4]; temperature 37 ° C.) is listed as 5.26E+03 ppm.

For `O=C1c2cc(S(=O)(=O)O)ccc2C(=O)c2c1cccc2S(=O)(=O)O` [1,6-anthraquinone disulfonic acid], the “solubility (ppm)” value ([4]; temperature 18 ° C.) is listed as 3.33E+05 ppm.

In the case of `O=C(O)c1c(Br)cc(Br)cc1Br` [2,4,6-tribromobenzoic acid], the “solubility (ppm)” value ([4]; temperature 15 ° C.) is listed as 3.49E+03 ppm.

For `CN(CCO)C(=O)COC(=O)c1ccccc1O` [benzoic acid, 2-hydroxy-, 2-[(2-hydroxyethyl)methylamino]-2-oxoethyl ester], the “solubility (ppm)” value ([4]; temperature 21 ° C.) is given as 6.26E+03 ppm.

In the case of `CC(C)(C(=O)O)C(C)(CC(=O)O)C(=O)O` [L-camphoronic acid], the “solubility (ppm)” value ([4]; temperature 16 ° C.) is listed as 9.99E+04 ppm.

For `CCC=CCC(C)C(=O)O` (stereo not drawn) [2-methyl-4-heptenoic acid], the “solubility (ppm)” value ([4]; temperature 25 ° C.) is listed as 4.64E+03 ppm.

In the case of `O=C(O)c1cc(=O)c(O)c(C(=O)O)o1` [3-hydroxy-4-oxo-4H-pyran-2,6-dicarboxylic acid], the “solubility (ppm)” value ([4]; temperature 25 ° C.) is given as 8.33E+03 ppm.

In the case of `O=C(O)c1cccnc1C(=O)O` [2,3-pyridinedicarboxylic acid], the “solubility (ppm)” value ([4]; temperature 25 ° C.) is listed as 1.09E+04 ppm.

In the case of `CCCC(C)C=CC(=O)O` (stereo not drawn) [4-methyl-2-heptenoic acid], the “solubility (ppm)” value ([4]; temperature 25 ° C.) is listed as 4.64E+03 ppm.

For `O=C1NC(=O)C2(CCC2)C(=O)N1` [5,5-trimethylenebarbituric acid], the “solubility (ppm)” value ([4]; temperature 25 ° C.) is listed as 3.71E+03 ppm.

In the case of `Cc1ccc(C(=O)O)c(O)c1` [2-hydroxy-4-methylbenzoic acid], the “solubility (ppm)” value ([4]; temperature 100 ° C.) is listed as 1.00E+04 ppm.

In the case of pamoic acid, the “solubility of sample (conclusion)” value [5] is reported as “not initially soluble and remained insoluble at least after 1 day”.

For `O=C1c2cccc(S(=O)(=O)O)c2C(=O)c2cccc(Cl)c21` [1,5-chloroanthraquinone sulfonic acid], the “solubility (ppm)” value ([4]; temperature 18 ° C.) is given as 2.50E+05 ppm.

In the case of `CCC(COCCOc1c(I)cc(I)c(NC(C)=O)c1I)C(=O)O` (stereo not drawn) [iopronic acid], the “solubility (ppm)” value ([4]; temperature 37 ° C.) is given as 1.97E+04 ppm.

In the case of `CCCC=C(CC)C(=O)O` [2-ethyl-2-hexenoic acid], the “solubility (ppm)” value ([4]; temperature 25 ° C.) is listed as 6.06E+03 ppm.
